Data reported in patent publication US9333194B2, “Use of ansamycin antibiotics and method of screening novel angiogenesis inhibitor” (Japan Science & Technology Agency, priority 2002, dated 2016).

Tested on: human retinal microvascular endothelial cells
Assay: Angiogenesis-inhibiting signals (mRNA quantification by real-time quantitative PCR)
Assay type: cell-based
Conditions: various concentrations; for angiogenesis-inhibiting signals (changes of gene expression levels): four hours incubation, FIG. 6; for mRNA amount of c-myc, integrin-αv, integrin-β3: FIG. 6 legend
Procedure: Human retinal microvascular endothelial cells were rendered to grow exponentially in the presence of serum/growth factors/angiogenesis-promoting factors, and various concentrations of rifampicin, rifamycin SV and 3-formyl rifamycin were added. After four hours-incubation, RNA was extracted and subjected to mRNA quantification of various genes using aforementioned LightCycler-based highly sensitive real-time quantitative PCR. A, B and C represent the quantification results of c-myc gene; D, E and F represent those of integrin-αv gene; G, H and I represent those of integrin-β3 gene. Further, A, D and G indicate the changes of mRNA levels after adding rifampicin; B, E and H indicate those after adding rifamycin SV; C, F and I indicate those after adding 3-formyl rifamycin.

Row | SMILES | angiogenesis-inhibiting signals (changes of gene expression levels) | mRNA amount of c-myc, integrin-αv, integrin-β3
1 | CO[C@H]1/C=C/O[C@@]2(C)Oc3c(C)c(O)c4c(O)c(c(C=O)c(O)c4c3C2=O)NC(=O)/C(C)=C\C=C\[C@H](C)[C@H](O)[C@@H](C)[C@@H](O)[C@@H](C)[C@H](OC(C)=O)[C@@H]1C [3-formyl rifamycin] | exhibit similar activity potently | inhibited in a concentration-dependent manner
2 | CO[C@H]1/C=C/O[C@@]2(C)Oc3c(C)c([O-])c4c(O)c(cc(O)c4c3C2=O)NC(=O)/C(C)=C\C=C\[C@H](C)[C@H](O)[C@@H](C)[C@@H](O)[C@@H](C)[C@H](OC(C)=O)[C@@H]1C.[Na+] [rifamycin SV] | exhibit similar activity potently | inhibited in a concentration-dependent manner
